In patent publication US20020099241A1, “Alpha-sulfin-and alpha-sulfonamino acid amides” (priority 1998, published 2002):

Legend:
Plasmopara viticola = assay: D-1: Action against Plasmopara viticola on vines (residual-protective and residual-curative); format: in vivo; settings: vine seedlings, spray mixture 0.02% active ingredient, evaluated 6 days after infection; protective/curative not distinguished
Experimental: D-1: Action Against Plasmopara viticola on Vines a) Residual-Protective Action
Vine seedlings are sprayed at the 4- to 5-leaf stage with a spray mixture (0.02% active ingredient) prepared from a wettable powder formulation of the test compound. After 24 hours, the treated plants are infected with a sporangia suspension of the fungus. Fungus infestation is evaluated after incubation for 6 days at 95-100% relative humidity and 20° C. […]
b) Residual-Curative Action
Vine seedlings are infected at the 4- to 5-leaf stage with a sporangia suspension of the fungus. After incubation for 24 hours in a humidity chamber at 95-100% relative humidity and 20° C., the infected plants are dried and sprayed with a spray mixture (0.02% active ingredient) prepared from a wettable powder formulation of the test compound. After the spray coating has dried, the treated plants are placed in the humidity chamber again. Fungus infestation is evaluated 6 days after infection.

Phytophthora [1] = assay: D-2: Action against Phytophthora on tomato plants (residual-protective and systemic); format: in vivo; settings: spray or soil watering 0.02% active ingredient, evaluated 4-5 days after infection, protective/systemic not distinguished
Experimental: D-2: Action Against Phytophthora on Tomato Plants
(§1) a) Residual-Protective Action
(§2) After a cultivation period of 3 weeks, tomato plants are sprayed with a spray mixture (0.02% active ingredient) prepared from a wettable powder formulation of the test compound. After 48 hours, the treated plants are infected with a sporangia suspension of the fungus. Fungus infestation is evaluated after incubation of the infected plants for 5 days at 90-100% relative humidity and 20° C.
as §2, with “watered” for “sprayed”, “ingredient based on the volume of the soil)” for “ingredient)”, “compound. […]” for “compound.”, “96” for “48”, “4” for “5”

Phytophthora [2] = assay: D-3: Action against Phytophthora on potato plants (residual-protective and systemic); format: in vivo; settings: potato plants (Bintje variety), spray or soil watering 0.02% active ingredient, evaluated 4 days after infection; protective/systemic not distinguished
Experimental: D-3: Action Against Phytophthora on Potato Plants
as §1
(§3) 2-3 week old potato plants (Bintje variety) are sprayed with a spray mixture (0.02% active ingredient) prepared from a wettable powder formulation of the test compound. After 48 hours, the treated plants are infected with a sporangia suspension of the fungus. Fungus infestation is evaluated after incubation of the infected plants for 4 days at 90-100% relative humidity and 20° C.
as §3, with “watered” for “sprayed”, “ingredient based on the volume of the soil)” for “ingredient)”, “compound. […]” for “compound.”, “C. Fungal infestation is effectively controlled with compounds of Tables 1 to 37.” for “C.”

SMILES | melting point [°C] | Fungus infestation (Plasmopara viticola) | Fungus infestation (Phytophthora [1]) | Fungus infestation (Phytophthora [2])
CCS(=O)(=O)N[C@H](C(=O)NCCc1ccc(OCCCc2cccc(C(F)(F)F)c2)c(OC)c1)C(C)C | 119 to 120 |  |  | 
COc1cc(CCNC(=O)[C@@H](NS(C)(=O)=O)C(C)C)ccc1OCCCc1ccc(Cl)cc1 | 128 to 130 |  |  | 
CCS(=O)(=O)N[C@H](C(=O)NCCc1ccc(OCC(C)c2ccc(F)cc2)c(OC)c1)C(C)C (stereo partly drawn) [Compound A1.01, (S)-2-Ethanesulfonylamino-N-(2-{4-[2-(4-fluoro-phenyl)-propoxy]-3-methoxy-phenyl}-ethyl)-3-methyl-butyramide] | 107 to 111 | completely inhibit fungal infestation | completely inhibit fungal infestation | completely inhibit fungal infestation
